Like-named read-outs stand apart in the source and are kept apart here.

Holding throughout (assay): Glasshouse assay for herbicidal activity (pre- and post-emergence), percentage phytotoxicity
What all share (assay type): in vivo

Assay [1] concerns Alopecurus myosuroides (ALOMY). As to conditions: Alopecurus myosuroides. The essentials:
(§1)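 Pot-grown plants treated one day after sowing (pre-emergence) or at about 12 days (post-emergence); glasshouse at 24/18° C (warm) or 20/16° C (cool species) day/night, 16 h light, 65% humidity. Visual % phytotoxicity (0 = none, 100 = total damage) scored at 15 DAA post or 20 DAA pre.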

In the next assay the test system is Avena fatua (AVEFA). As to conditions: Avena fatua. The method in brief:
as §1

Assay [2] deals with Echinochloa crus-galli (ECHCG). As to conditions: Echinochloa crus-galli. The method in brief: as §1
For a further assay, the system named is Lolium perenne (LOLPE). As to conditions: Lolium perenne. The essentials: as §1
Setting [3] is: post-emergence, 360 h, POST-emergence, rate 250 g/ha, visual score 15 DAA (100%=total damage, 0%=no damage), read-out: Post-emergence herbicidal activity (percentage phytotoxicity) ALOMY POST.
The mark [4] stands for this setting: pre-emergence, 480 h, PRE-emergence, rate 250 g/ha, visual score 20 DAA (100%=total damage, 0%=no damage), read-out: Pre-emergence herbicidal activity (percentage phytotoxicity) ALOMY PRE.
The mark [5] stands for this setting: post-emergence, 360 h, POST-emergence, rate 250 g/ha, visual score 15 DAA (100%=total damage, 0%=no damage), read-out: Post-emergence herbicidal activity (percentage phytotoxicity) AVEFA POST.
The mark [6] stands for this setting: pre-emergence, 480 h, PRE-emergence, rate 250 g/ha, visual score 20 DAA (100%=total damage, 0%=no damage), read-out: Pre-emergence herbicidal activity (percentage phytotoxicity) AVEFA PRE.
The mark [7] stands for this setting: post-emergence, 360 h, POST-emergence, rate 250 g/ha, visual score 15 DAA (100%=total damage, 0%=no damage), read-out: Post-emergence herbicidal activity (percentage phytotoxicity) ECHCG POST.
Setting [8] is: pre-emergence, 480 h, PRE-emergence, rate 250 g/ha, visual score 20 DAA (100%=total damage, 0%=no damage), read-out: Pre-emergence herbicidal activity (percentage phytotoxicity) ECHCG PRE.
Setting [9] is: post-emergence, 360 h, POST-emergence, rate 250 g/ha, visual score 15 DAA (100%=total damage, 0%=no damage), read-out: Post-emergence herbicidal activity (percentage phytotoxicity) LOLPE POST.
Setting [10] is: pre-emergence, 480 h, PRE-emergence, rate 250 g/ha, visual score 20 DAA (100%=total damage, 0%=no damage), read-out: Pre-emergence herbicidal activity (percentage phytotoxicity) LOLPE PRE.

As for `C=CCNC(=O)CC1CC(=O)C(c2c(C)cc(C)cc2C)C1=O` (centres unmarked) [Compound A175], the pest or weed control at 250 g/ha in assay [1] (post-emergence, 360 h, post-emergence, 250 g/ha, 15 DAA, visual score (100%=total damage; 0%=no damage), read-out: ALOMY POST herbicidal activity (percentage phytotoxicity)) came out at 80%; in assay [1] (pre-emergence, 480 h, pre-emergence, 250 g/ha, 20 DAA, visual score (100%=total damage; 0%=no damage), read-out: ALOMY PRE herbicidal activity (percentage phytotoxicity)), 80%; with Avena fatua (AVEFA) (post-emergence, 360 h, post-emergence, 250 g/ha, 15 DAA, visual score (100%=total damage; 0%=no damage), read-out: AVEFA POST herbicidal activity (percentage phytotoxicity)), 90%; with Avena fatua (AVEFA) (pre-emergence, 480 h, pre-emergence, 250 g/ha, 20 DAA, visual score (100%=total damage; 0%=no damage), read-out: AVEFA PRE herbicidal activity (percentage phytotoxicity)), 70%; in assay [2] (post-emergence, 360 h, post-emergence, 250 g/ha, 15 DAA, visual score (100%=total damage; 0%=no damage), read-out: ECHCG POST herbicidal activity (percentage phytotoxicity)) it was 90%; in assay [2] (pre-emergence, 480 h, pre-emergence, 250 g/ha, 20 DAA, visual score (100%=total damage; 0%=no damage), read-out: ECHCG PRE herbicidal activity (percentage phytotoxicity)), 90%. In addition, the pest or weed control at 250 g/ha in the assay on Lolium perenne (LOLPE) (post-emergence, 360 h, post-emergence, 250 g/ha, 15 DAA, visual score (100%=total damage; 0%=no damage), read-out: LOLPE POST herbicidal activity (percentage phytotoxicity)) is 90%; with Lolium perenne (LOLPE) (pre-emergence, 480 h, pre-emergence, 250 g/ha, 20 DAA, visual score (100%=total damage; 0%=no damage), read-out: LOLPE PRE herbicidal activity (percentage phytotoxicity)), 100%.
As to `C=CC(C)NC(=O)CC1CC(=O)C(c2c(C)cc(C)cc2C)C1=O` (centres unmarked) [Compound B179], the pest or weed control at 250 g/ha in assay [1] (setting [3]) amounted to 90%; in assay [1] (setting [4]), 90%; in the assay with Avena fatua (AVEFA) (setting [5]), 80%; with Avena fatua (AVEFA) (setting [6]) it was 70%; in assay [2] (setting [7]) it was 100%; in assay [2] (setting [8]), 100%. Moreover, the pest or weed control at 250 g/ha in the assay on Lolium perenne (LOLPE) (setting [9]) amounted to 90%; in the assay on Lolium perenne (LOLPE) (setting [10]), 100%.
For `C/C=C/c1cc(C)c(C2C(=O)CC(CC(=O)N(C)CC)C2=O)c(CC)c1` (centres unmarked) [Compound B194], the pest or weed control at 250 g/ha in assay [1] (setting [3]) stood at 100%; in assay [1] (setting [4]), 100%; with Avena fatua (AVEFA) (setting [5]) it was 100%; in the assay on Avena fatua (AVEFA) (setting [6]) it was 80%; in assay [2] (setting [7]), 100%; in assay [2] (setting [8]) it was 90%. Besides, the pest or weed control at 250 g/ha in the assay with Lolium perenne (LOLPE) (setting [9]) and with Lolium perenne (LOLPE) (setting [10]) was 100% throughout.
Turning to `Cc1cc(-c2ncc(Cl)cc2F)cc(C)c1C1C(=O)CC(CC(=O)NCc2ccc(OC(F)(F)F)cc2)C1=O` (centres unmarked) [Compound A121], the pest or weed control at 250 g/ha in assay [1] (post-emergence, 360 h, Rate 250 g/ha, post-emergence, assessed visually 15 DAA, 100%=total damage, 0%=no damage, read-out: Post-emergence herbicidal activity (percentage phytotoxicity) ALOMY POST) came to 100%; in assay [1] (pre-emergence, 480 h, Rate 250 g/ha, pre-emergence, assessed visually 20 DAA, 100%=total damage, 0%=no damage, read-out: Pre-emergence herbicidal activity (percentage phytotoxicity) ALOMY PRE) it was 90%; in the assay with Avena fatua (AVEFA) (post-emergence, 360 h, Rate 250 g/ha, post-emergence, assessed visually 15 DAA, 100%=total damage, 0%=no damage, read-out: Post-emergence herbicidal activity (percentage phytotoxicity) AVEFA POST), 100%; with Avena fatua (AVEFA) (pre-emergence, 480 h, Rate 250 g/ha, pre-emergence, assessed visually 20 DAA, 100%=total damage, 0%=no damage, read-out: Pre-emergence herbicidal activity (percentage phytotoxicity) AVEFA PRE), 90%; in assay [2] (post-emergence, 360 h, Rate 250 g/ha, post-emergence, assessed visually 15 DAA, 100%=total damage, 0%=no damage, read-out: Post-emergence herbicidal activity (percentage phytotoxicity) ECHCG POST), 100%; in assay [2] (pre-emergence, 480 h, Rate 250 g/ha, pre-emergence, assessed visually 20 DAA, 100%=total damage, 0%=no damage, read-out: Pre-emergence herbicidal activity (percentage phytotoxicity) ECHCG PRE) it was 90%. For the same compound, the pest or weed control at 250 g/ha in the assay on Lolium perenne (LOLPE) (post-emergence, 360 h, Rate 250 g/ha, post-emergence, assessed visually 15 DAA, 100%=total damage, 0%=no damage, read-out: Post-emergence herbicidal activity (percentage phytotoxicity) LOLPE POST) came to 100%; with Lolium perenne (LOLPE) (pre-emergence, 480 h, Rate 250 g/ha, pre-emergence, assessed visually 20 DAA, 100%=total damage, 0%=no damage, read-out: Pre-emergence herbicidal activity (percentage phytotoxicity) LOLPE PRE) it was 80%.
As for `Cc1cc(Br)cc(C)c1C1C(=O)CC(CC(=O)NC/C=C/Cl)C1=O` (centres unmarked) [Compound B176], the pest or weed control at 250 g/ha was determined as 80% in assay [1] (setting [3]); 90% in assay [1] (setting [4]); 80% with Avena fatua (AVEFA) (setting [5]); 60% with Avena fatua (AVEFA) (setting [6]); 80% in assay [2] (setting [7]); 80% in assay [2] (setting [8]). The values for the pest or weed control at 250 g/ha with Lolium perenne (LOLPE) (setting [9]) and in the assay with Lolium perenne (LOLPE) (setting [10]) were 80% and 90%, respectively.
As to `COc1ccc(CNC(=O)CC2CC(=O)C(c3c(C)cc(-c4ncc(F)cc4F)cc3C)C2=O)cc1` (centres unmarked) [Compound B91], the pest or weed control at 250 g/ha in assay [1] (post-emergence, 360 h, 250 g/ha, post-emergence, 15 DAA, visual assessment (100%=total damage, 0%=no damage), read-out: Post-emergence herbicidal activity (percentage phytotoxicity) ALOMY POST) turned out to be 100%; in assay [1] (pre-emergence, 480 h, 250 g/ha, pre-emergence, 20 DAA, visual assessment (100%=total damage, 0%=no damage), read-out: Pre-emergence herbicidal activity (percentage phytotoxicity) ALOMY PRE), 80%; in the assay with Avena fatua (AVEFA) (post-emergence, 360 h, 250 g/ha, post-emergence, 15 DAA, visual assessment (100%=total damage, 0%=no damage), read-out: Post-emergence herbicidal activity (percentage phytotoxicity) AVEFA POST) it was 100%; in the assay on Avena fatua (AVEFA) (pre-emergence, 480 h, 250 g/ha, pre-emergence, 20 DAA, visual assessment (100%=total damage, 0%=no damage), read-out: Pre-emergence herbicidal activity (percentage phytotoxicity) AVEFA PRE) it was 70%; in assay [2] (post-emergence, 360 h, 250 g/ha, post-emergence, 15 DAA, visual assessment (100%=total damage, 0%=no damage), read-out: Post-emergence herbicidal activity (percentage phytotoxicity) ECHCG POST) it was 100%; in assay [2] (pre-emergence, 480 h, 250 g/ha, pre-emergence, 20 DAA, visual assessment (100%=total damage, 0%=no damage), read-out: Pre-emergence herbicidal activity (percentage phytotoxicity) ECHCG PRE), 80%. Further, the pest or weed control at 250 g/ha in the assay with Lolium perenne (LOLPE) (post-emergence, 360 h, 250 g/ha, post-emergence, 15 DAA, visual assessment (100%=total damage, 0%=no damage), read-out: Post-emergence herbicidal activity (percentage phytotoxicity) LOLPE POST) was determined as 100%; in the assay on Lolium perenne (LOLPE) (pre-emergence, 480 h, 250 g/ha, pre-emergence, 20 DAA, visual assessment (100%=total damage, 0%=no damage), read-out: Pre-emergence herbicidal activity (percentage phytotoxicity) LOLPE PRE), 90%.
For `C#CCNC(=O)CC1CC(=O)C(c2c(C)cc(-c3ncc(F)cc3F)cc2C)C1=O` (centres unmarked) [Compound B336], the pest or weed control at 250 g/ha in assay [1] (post-emergence, 360 h, Rate 250 g/ha, post-emergence, visual assessment 15 DAA, 100%=total damage, 0%=no damage, read-out: Post-emergence herbicidal activity (percentage phytotoxicity) ALOMY POST) was 100%; in assay [1] (pre-emergence, 480 h, Rate 250 g/ha, pre-emergence, visual assessment 20 DAA, 100%=total damage, 0%=no damage, read-out: Pre-emergence herbicidal activity (percentage phytotoxicity) ALOMY PRE), 100%; in the assay on Avena fatua (AVEFA) (post-emergence, 360 h, Rate 250 g/ha, post-emergence, visual assessment 15 DAA, 100%=total damage, 0%=no damage, read-out: Post-emergence herbicidal activity (percentage phytotoxicity) AVEFA POST) it was 100%; in the assay with Avena fatua (AVEFA) (pre-emergence, 480 h, Rate 250 g/ha, pre-emergence, visual assessment 20 DAA, 100%=total damage, 0%=no damage, read-out: Pre-emergence herbicidal activity (percentage phytotoxicity) AVEFA PRE), 100%; in assay [2] (post-emergence, 360 h, Rate 250 g/ha, post-emergence, visual assessment 15 DAA, 100%=total damage, 0%=no damage, read-out: Post-emergence herbicidal activity (percentage phytotoxicity) ECHCG POST), 100%; in assay [2] (pre-emergence, 480 h, Rate 250 g/ha, pre-emergence, visual assessment 20 DAA, 100%=total damage, 0%=no damage, read-out: Pre-emergence herbicidal activity (percentage phytotoxicity) ECHCG PRE), 100%. Further, the pest or weed control at 250 g/ha worked out at 100% in the assay on Lolium perenne (LOLPE) (post-emergence, 360 h, Rate 250 g/ha, post-emergence, visual assessment 15 DAA, 100%=total damage, 0%=no damage, read-out: Post-emergence herbicidal activity (percentage phytotoxicity) LOLPE POST) and 100% in the assay with Lolium perenne (LOLPE) (pre-emergence, 480 h, Rate 250 g/ha, pre-emergence, visual assessment 20 DAA, 100%=total damage, 0%=no damage, read-out: Pre-emergence herbicidal activity (percentage phytotoxicity) LOLPE PRE).

Source of the values: patent US10206394B2, “Herbicidal compounds” (Syngenta Participations AG, priority 2014, dated 2019).
